Data from patent US20240150302A1, “6-METHYLURACIL DERIVATIVES WITH ANTICHOLINESTERASE ACTIVITY AND THEIR USE” (priority 2021, published 2024).

Experiments:
[1] = Solubility in water and organic solvents; assay type: physicochemical
[2] = system: transgenic mice of the B6C3-Tg(APP695)85Dbo Tg(PSENI)85Dbo genotype; details: 5 mg/kg daily intraperitoneal, RU patent No. 2565756; cited from earlier work
mice of the CD-1 line [3] = experiment: General toxic effect (LD50) in mice; details: for LD50 (in mice, i.p.): intraperitoneal; for LD50 (in mice, p.o.): oral; for Times less toxic than donepezil hydrochloride, oral: ratio of LD50, administered orally; for Times less toxic than donepezil hydrochloride, intraperitoneal / Times less toxic than the free base: ratio of LD50, intraperitoneal
Protocol: Ed. A. N. Mironova] on mice of the CD-1 line (“Puschino” Nursery, Moscow Region), both males and females, weighing 19.0±2.0 g, kept on a standard diet in the day/night lighting regimen (12 hours) at 22° C.

mice of the CD-1 line [4] = details: in mice, i.p.; prior-art free base; cited from earlier work
[5] = system: transgenic mice with genotype B6C3-Tg(APP695)85Dbo Tg(PSENI)85Dbo; experiment: "Rewarded alternation" test in a T-maze, genetic model of Alzheimer's disease; assay type: in vivo; details: administered orally, compared with healthy animals
Description: At the beginning of the research, the age of the transgenic mice was 9 months.
At the beginning of the research, the age of the transgenic mice was 8 months.

[6] = system: transgenic mice of the B6C3-Tg(APP695)85Dbo Tg(PSENI)85Dbo genotype; experiment: Number of amyloid plaques in the cortex, Thioflavin S staining of brain sections; assay type: in vivo; details: administered orally
Protocol: The line was purchased at The Jackson Laboratory (USA) and kept in the “Pushchino” nursery for laboratory animals Pushchino, Moscow Region). At the beginning of the research, the age of the transgenic mice was 9 months.
(§1) An equivalent amount of water (Water (Tg+)) was orally administered to control groups of transgenic mice.
Amyloid-beta deposits were evaluated after sacrifice on mouse brain sections (20 μm) using the Thioflavin S fluorescent dye and the Olympus BX51W1 fluorescence microscope, by the method described in the article [http://library.med.utah.edu/WebPath/histhtml/manuals/manuals.html].
The line was purchased at The Jackson Laboratory (USA) and kept in the “Pushchino” nursery for laboratory animals Pushchino, Moscow Region). At the beginning of the research, the age of the transgenic mice was 8 months.
as §1

Row | Structure (SMILES) | Solubility [1] | Reduction of the number of amyloid deposits in the cerebral cortex [2] | LD50 (in mice, i.p.) (mice of the CD-1 line [3]) | LD50 (background statement) (mice of the CD-1 line [4]) | LD50 (in mice, p.o.) (mice of the CD-1 line [3]) | Times less toxic than donepezil hydrochloride, oral (mice of the CD-1 line [3]) | Times less toxic than donepezil hydrochloride, intraperitoneal (mice of the CD-1 line [3]) | Times less toxic than the free base (mice of the CD-1 line [3]) | Correction of memory impairment [5] | Effect on the number of amyloid plaques in the cortex [6]
1 | CCN(CCCCCn1c(C)cc(=O)n(CCCCCN(CC)Cc2ccccc2[N+](=O)[O-])c1=O)Cc1ccccc1[N+](=O)[O-] [1,3-bis[5-(ortho-nitrobenzyl-ethylamino)pentyl-1]-6-methyluracil, reference compound] | insoluble in water | 50% | 51 mg/kg | 51.48 mg/kg | – | – | – | – | – | –
2 | Br.Br.CCN(CCCCCn1c(C)cc(=O)n(CCCCCN(CC)Cc2ccccc2[N+](=O)[O-])c1=O)Cc1ccccc1[N+](=O)[O-] [Compound (1), 1,3-bis[5-(ortho-nitrobenzylethylamino)pentyl]-6-methyluracil dihydrobromide] | soluble in chloroform, dimethylformamide, dimethyl sulfoxide, ethyl alcohol, and water | – | 199 mg/kg | – | 520 mg/kg | 12 times | 40 times | ~4 times | effective for correction of memory impairment | more effective product for prevention of the formation of amyloid plaque than donepezil hydrochloride
3 | CCN(CCCCCn1c(C)cc(=O)n(CCCCCN(CC)Cc2ccccc2[N+](=O)[O-])c1=O)Cc1ccccc1[N+](=O)[O-].Cl.Cl [Compound (2), 1,3-bis[5-(ortho-nitrobenzylethylamino)pentyl]-6-methyluracil dihydrochloride] | soluble in dimethylformamide, dimethyl sulfoxide, ethyl alcohol, and water | – | 150 mg/kg | – | 290 mg/kg | 6 times | 30 times | ~3 times | effective for correcting memory impairment | more effective than donepezil hydrochloride for preventing the formation of amyloid plaques
